Measurements taken from patent US5756536A, “Microbial transformation of taxol and cephalomannine” (Purdue Research Foundation, priority 1996, dated 1998).
Converted amounts (≈) assume the structure as drawn. Like-named read-outs stand apart in the source and are kept apart here.

Legend:
[1] = tested on: tubulin; conditions: cited from earlier work
[2] = tested on: A-549; experiment: In vitro antitumor cytotoxicity, MTT microculture assay, A-549; assay type: cell-based; conditions: Homo sapiens, A549, 144 h
Protocol: (§1) The in vitro antitumor activity cytotoxicity was measured by a microculture assay using 3-(4,5-dimethylthiazol-2-yl)-2,5-diphenyl-tetrazolium bromide (MTT). This assay has an advantage over in vivo assay in that results are obtained within a week as opposed to several months. The assay was done in 96-well microtiter plates. The MTT assay is based on the transformation into a dark blue formazan product by dehydrogenase in the mitochondria of live tumor cells after exposure to drug for 6 days [M. C. Alley, D. A. Scudiero, A. Monks, M. L. Hursey, M. J. Czerwinski, D. L. Fine, B. J. Abbott, J. G. Mayo, R. H. Shoemaker and M. R. Boyd, Cancer Res., 48, 589, 1988.] Thus, only live cells are stained and can be measured at 570 nm. Antitumor cytotoxicity is reported as GI50, effect drug dose at which cell growth is retarded to 50% of control culture of tumor cells. The active compounds must have GI50 values that are less then 10^-4 M or 10 μg/ml.
(§2) Antitumor Cytotoxicity of Taxanes
(§3) Against Human Tumor Cell Lines

[3] = tested on: MCF-7; experiment: In vitro antitumor cytotoxicity, MTT microculture assay, MCF-7; assay type: cell-based; conditions: Homo sapiens, MCF7, 144 h
Protocol: as §1, §2, §3
MCF7: breast adenocarcinoma

[4] = tested on: HT-29; experiment: In vitro antitumor cytotoxicity, MTT microculture assay, HT-29; assay type: cell-based; conditions: Homo sapiens
Protocol: as §1, §2, §3
HT29: colon adenocarcinoma

[5] = tested on: tubulin; experiment: FAT tubulin polymerization assay; assay type: biochemical
[6] = tested on: drug-refractory ovarian cancer; conditions: in vivo; cited from earlier work
[7] = cited from earlier work
[8] = A-549 lung carcinoma, drug exposure 6 days, MTT, 570 nm, read-out: GI50
[9] = MCF-7 breast adenocarcinoma, drug exposure 6 days, MTT, 570 nm, read-out: GI50
[10] = 144 h, HT-29 colon adenocarcinoma, drug exposure 6 days, MTT, 570 nm, read-out: GI50

CC[C@]1(O)C[C@@H]2CN(CCc3c([nH]c4ccccc34)[C@@](C(=O)OC)(c3cc4c(cc3OC)N(C)[C@H]3[C@@](O)(C(=O)OC)[C@H](OC(C)=O)[C@]5(CC)C=CCN6CC[C@]43[C@@H]65)C2)C1 [vinblastine]
effect on microtubule / tubulin polymer formation [1]: prevent microtubule formation

CC(=O)O[C@H]1C(=O)[C@@]2(C)[C@H]([C@H](OC(=O)c3ccccc3)[C@]3(O)C[C@H](OC(=O)[C@H](O)[C@@H](NC(=O)c4ccc(O)cc4)c4ccccc4)C(C)=C1C3(C)C)[C@]1(OC(C)=O)CO[C@@H]1C[C@@H]2O [L-760,006]
GI50 [2, 8]: 0.04 ng/mL (≈ 0.046 nM)
GI50 [3, 9]: 0.01 ng/mL (≈ 0.0115 nM)
GI50 [4, 10]: 0.08 ng/mL (≈ 0.092 nM)

CC(=O)O[C@H]1C(=O)[C@@]2(C)[C@H]([C@H](OC(=O)c3ccccc3)[C@]3(O)C[C@H](OC(=O)[C@H](O)[C@@H](NC(=O)/C(C)=C/CO)c4ccccc4)C(C)=C1C3(C)C)[C@]1(OC(C)=O)CO[C@@H]1C[C@@H]2O [L-745,596]
GI50 [2, 8]: 30 ng/mL (≈ 35.4 nM)
GI50 [3, 9]: 50 ng/mL (≈ 59 nM)
GI50 [4, 10]: 20 ng/mL (≈ 23.6 nM)

CC[C@]1(O)C[C@H]2CN(CCc3c([nH]c4ccccc34)[C@@](C(=O)OC)(c3cc4c(cc3OC)N(C=O)[C@H]3[C@@](O)(C(=O)OC)[C@H](OC(C)=O)[C@]5(CC)C=CCN6CC[C@]43[C@@H]65)C2)C1 [vineristine]
effect on microtubule / tubulin polymer formation [1]: prevent microtubule formation

CC(=O)O[C@@]12CO[C@@H]1C[C@H](O)[C@@]1(C)C(=O)[C@H](OC(=O)CO)C3=C(C)[C@@H](OC(=O)[C@H](O)[C@@H](NC(=O)c4ccccc4)c4ccccc4)C[C@@](O)([C@@H](OC(=O)c4ccccc4)[C@H]21)C3(C)C [L-760,007, 10-hydroxyacetyl taxol]
GI50 [2, 8]: < 0.01 ng/mL
GI50 [3, 9]: 0.04 ng/mL (≈ 0.046 nM)
GI50 [4, 10]: 0.01 ng/mL (≈ 0.0115 nM)

C/C=C(\C)C(=O)N[C@@H](c1ccccc1)[C@@H](O)C(=O)O[C@H]1C[C@@]2(O)[C@@H](OC(=O)c3ccccc3)[C@@H]3[C@]4(OC(C)=O)CO[C@@H]4C[C@H](O)[C@@]3(C)C(=O)[C@H](OC(C)=O)C(=C1C)C2(C)C [Caphalomannine, cephalomannine]
GI50 [2]: 0.1 ng/mL (≈ 0.12 nM)
GI50 [3]: 0.8 ng/mL (≈ 0.962 nM)
GI50 ([4]; HT-29, 144 h): 0.2 ng/mL (≈ 0.24 nM)

CC(=O)O[C@H]1C(=O)[C@@]2(C)[C@H]([C@H](OC(=O)c3ccccc3)[C@]3(O)C[C@H](OC(=O)[C@H](O)[C@@H](NC(=O)c4ccccc4)c4ccccc4)C(C)=C1C3(C)C)[C@]1(OC(C)=O)CO[C@@H]1C[C@@H]2O [Taxol]
GI50 [2, 8]: 0.0004 ng/mL (≈ 0.000468 nM)
GI50 [3, 9]: 0.002 ng/mL (≈ 0.00234 nM)
GI50 [4, 10]: 0.0001 ng/mL (≈ 0.000117 nM)
IC50 in the FAT tubulin polymerization assay [5]: 17 ng/mL (≈ 19.9 nM)
effect on microtubule / tubulin polymer formation [1]: promotes formation of microtubules
activity against drug-refractory ovarian cancer [6]: active agent against drug-refractory ovarian cancer
toxic effects in phase 1 clinical trials [7]: did not show excessive toxic effects
